The assay relates to male Wistar Han rats. In words: EDC test (anxiety test with electric probe burying), global anxiety score. Type of assay: in vivo, rat. As to conditions: Diazepam 3 mg/kg p.o. 60 min before the test. Here is the method:
Forty male Wistar Han rats (Crl:WI(Han), Charles River Laboratories, L'Arbresle, France), weighing from 250 to 275 g were used. Upon receipt, the rats were marked and split into groups of 3 or 4 animals in polycarbonate cages (Eurostandard type IIIH, 425×266×185 mm, Tecniplast, Lyon, France). The animals were housed in a climate-controlled animal house, at a temperature of […] and relative humidity of 50±20%. The rats had food (Teklad Global 2016, Harlan, Ganat, France) and drink ad libitum and were held in a day-night cycle inverted by 12 hours (day from 20:00 to 08:00). […]
The experimental device was placed in a room lit with a low intensity red light. A video camera connected to a digital recorder saved all behavioral sequences so that behavior of interest could be measured later. […]
The electric probe was inserted into the cage before the start of the test. […] After the electric shock, the rat's behavior was recorded for 5 min. […]
The following behaviors were quantified from video recordings made during the tests: • duration probe was buried; • number of stretches in the direction of the probe; • number of approaches to the probe; • number of flights from the probe. […]

As to `CN1C(=O)CN=C(c2ccccc2)c2cc(Cl)ccc21` [Diazepam], the “Global anxiety score vs. vehicle group (Mann-Whitney test)” value is “significantly lower”. Further, under “n = 9, Vehicle median 111”, the “Global anxiety score, Median” value is reported as 41.
